Data: US20120213805A1, “Amatoxin-Armed Tartget-Binding Moieties for the Treatment of Cancer” (priority 2009, published 2012)

Columns and labels:
BxPC-3 tumor xenografts = assay: BxPC-3 xenograft mouse tumor model; format: in vivo, NOD/SCID mice
Method: (§1) Five- to six-week old immunodeficient NOD/SCID mice were used for all experiments. BxPC-3 pancreatic or PC-3 prostate tumor cells (5×10^6 in 100 pi PBS) were transplanted subcutaneously to the right flank of the mice. Ten days later, when BxPC-3 tumors reached a volume of 30-80 mm^3 and PC-3 tumors reached a volume of 40-190 mm^3, the treatment was initiated. Animals received either control huHEA125 mAb at a dose of 15 mg/kg or huHEA125-amanitin conjugate (huHEA125-Ama) at a dose of 50 μg/kg of amanitin. Antibody and conjugate were administered as a single intraperitoneal injection.
(§2) Tumor growth was monitored for 16 days after initiation of the treatment. Tumor size was measured externally every third day using a caliper. Tumor volume was calculated according to the formula: V=π/6*a*b*c, where a, b and c are diameters in three dimensions. Data are presented as a relative tumor size/volume increase from the time of antibody administration.

PC-3 tumor xenografts = assay: PC-3 xenograft mouse tumor model; format: in vivo, NOD/SCID mice
Method: as §1, §2

RNA-polymerase II = RNA-polymerase II (Homo sapiens, UniProt P24928); conditions: not covalently bound; read-out: KD of complex between amanitin and RNA-polymerase II; cited from earlier work
[1] = molecular target: T1, epithelial cell adhesion molecule (EpCAM) (human, UniProt P16422 24-314); assay: binding to EpCAM-expressing cells; method not stated
T1 construct: whole, on cells; also called CD326; EpCAM antigen
T1 sequence (looked up): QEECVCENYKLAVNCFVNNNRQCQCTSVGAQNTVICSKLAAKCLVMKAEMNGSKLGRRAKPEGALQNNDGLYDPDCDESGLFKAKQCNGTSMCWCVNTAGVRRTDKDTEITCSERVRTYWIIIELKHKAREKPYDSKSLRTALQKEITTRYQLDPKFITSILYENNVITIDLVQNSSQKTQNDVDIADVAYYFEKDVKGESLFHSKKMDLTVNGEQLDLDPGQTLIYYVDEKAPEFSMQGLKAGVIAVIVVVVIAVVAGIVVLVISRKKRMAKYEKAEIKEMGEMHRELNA

[2] = 50 μg/kg of amanitin, single i.p. injection, BxPC-3
[3] = 50 μg/kg of amanitin, single i.p. injection, PC-3 tumor bearing mice

α-Amanitin-glutarate-huHEA125 [huHEA125-amanitin]
day from which tumor volume regressed dramatically (BxPC-3 tumor xenografts; [2]): 7 days
mice responding to treatment (BxPC-3 tumor xenografts; [2]): All mice responded to treatment
tumor growth (BxPC-3 tumor xenografts; [2]): strongly inhibited
body weight of the mice (BxPC-3 tumor xenografts; 50 μg/kg of amanitin, single i.p. injection, BxPC-3 tumor bearing mice): neither a decrease in body weight
mice with tumor completely eradicated (BxPC-3 tumor xenografts; 50 μg/kg of amanitin, single i.p. injection, day 16, BxPC-3): 50%
tolerability (BxPC-3 tumor xenografts; 50 μg/kg of amanitin, single intraperitoneal injection, BxPC-3 tumor bearing mice): well tolerated
tumor growth (PC-3 tumor xenografts; 50 μg/kg of amanitin, single i.p. injection, PC-3): strongly retarded
body weight of the mice (PC-3 tumor xenografts; [3]): No decrease in the body weight
tolerability (PC-3 tumor xenografts; [3]): well tolerated

huHEA125: chimeric anti-EpCAM antibody: mouse HEA125 variable domains with human kappa constant light chain and human IgG1 constant heavy chain
tumor volume increase (BxPC-3 tumor xenografts; 15 mg/kg single i.p. injection, day 16, BxPC-3, FIG. 9): approximately 880%
tumor volume increase (PC-3 tumor xenografts; 15 mg/kg single i.p. injection, day 10, PC-3, FIG. 10): approximately 550%

amanitin
Kd (RNA-polymerase II): 3 nM

B1: chimeric antibody huHEA125 (antibody, human IgG1, kappa, V domains shown)
VH: EVKLLESGGGLVQPGGSLKLSCAASGFDFSRFWMTWVRQAPGKGLEWIGEINLDSSTINYTPSLKDKFIISRDNAKNTLFLQMSKVRSEDTALYYCSRGISMDYWGQGTSVTVSS
VL: DILLTQSPAILSVSPGERVSFSCRASQSIGISLHWYQQRPSDSPRLLIKYASESISGIPSRFSGSGSGTDFTLSINSVESEDIADYYCQQSNIWPTTFGAGTKLELKR
notes: also called unmodified huHEA125 antibody; non-conjugated huHEA125 antibody
Kd [1]: 2.2 nM
